Test [1] concerns two-spotted spider mites. The test is described as follows: Miticidal test on two-spotted spider mites (by dipping). The note with it: dipping of soybean seedlings, active ingredient 500 ppm, 25° C., 13 days. Details: scale not given here. It is filed as in vivo, Tetranychus urticae. As for the experimental part: Wettable powders were prepared in accordance with Formulation Example 2 and diluted with water to an active ingredient concentration of 500 ppm. Soybean seedlings which had been inoculated with imago two-spotted spider mites were dipped in the resulting solutions and dried in air. The treated seedlings were placed in a thermostatic chamber at 25° C. for 13 days, and the mite survivors were counted for calculation of the miticidal value by using Equation 2. The test was carried out by one series system.

The subject of test [2] is southern root-knot nematodes. The experiment in a line: Nemastatic test on southern root-knot nematodes. In kind it is in vivo, Meloidogyne sp. The note with it: diluted solution 20 ppm mixed 1:1 with suspension of second stage larvae, 25° C., 5 days. The procedure: Compounds of the present invention (5 parts) and Tween 20 (tradename for polyoxyethylene sorbitan monolaurate) (1 part) as a spreader were dissolved n N,N-dimethylformamide (94 parts) to prepare 5% emulsifiable concentrates of the compounds of the present invention. Distilled water was added to the emulsifiable concentrates to prepare diluted solutions having a concentration of the compounds of the present invention of 20 ppm. 0.5 ml of the diluted solutions and 0.5 ml of water suspensions containing 100 second stage larvae of southern root-knot nematodes were mixed, and the mixture were placed in a thermostatic chamber at 25° C. for 5 days, and the survivors were counted for calculation of the nemastatic degree by using Equation 3. The test was carried out by two series system.

Test [3] deals with brown planthoppers. The experiment in a line: Insecticidal test on brown planthoppers. It is filed as in vivo, Nilaparvata lugens. As to conditions: active ingredient 500 ppm, germinating rice immersed, 4th-instar larvae, 25° C., 6 days. The procedure:
Wettable powders were prepared in accordance with Formulation Example 2 and diluted with water to an active ingredient concentration of 500 ppm. Germinating rice was immersed in the resulting solutions and put in a plastic cup with a capacity of 60 ml. Ten 4th-instar larvae of brown planthoppers were released to the cup, and the cup was covered and placed in a thermostatic chamber at 25° C. for 6 days, and the survivors were counted for calculation of the insecticidal degree by using Equation 1. The test was carried out by one series system.

Test [4] relates to two-spotted spider mites. The test is described as follows: Miticidal test on two-spotted spider mites (by soil drenching). It is filed as in vivo, Tetranychus urticae. Set-up: scale not given here. The note with it: active ingredient 100 ppm, 5 ml per 100 g soil, 25° C., 13 days. The procedure: Wettable powders were prepared in accordance with Formulation Example 2 and diluted with water to an active ingredient concentration of 100 ppm. 100 g of the soil in cups with soybean seedlings which had been inoculated with imago two-spotted spider mites were drenched with 5 ml of the resulting solutions. The treated seedlings were placed in a […] chamber at 25° C. for 13 days, and the mite survivors were counted for calculation of the miticidal value by using Equation 2.

SMILES strings stand for the structures.

Take `Cc1cc(F)c(-n2nc(C(F)(F)F)nc2N(C)C(=O)C(F)(F)F)cc1[S+]([O-])CC(F)(F)F` (racemic) [Compound 212]: the Miticidal value in test [1] and in test [4] was 100 throughout. Moreover, in test [2], the “Nemastatic degree (%)” value stood at 100%. The “Insecticidal degree (%)” value in test [3] was found to be 100%.

With `Cc1cc(F)c(-n2nc(C(F)(F)F)nc2N)cc1SCC(F)(F)F` [Compound 1, [5-(5-amino-3-trifluoromethyl-1,2,4-triazolyl)-4-fluoro-2-methylphenyl]2,2,2-trifluoroethyl sulfide], the Miticidal value in test [1] is recorded as 100; in test [4], 99. The “Nemastatic degree (%)” value in test [2] is recorded as 100%. For the same compound, in test [3], the “Insecticidal degree (%)” value was found to be 90%.

As to `Cc1cc(F)c(-n2nc(C(F)(F)F)nc2N)cc1[S+]([O-])CC(F)(F)F` (stereo not shown) [Compound 2, [5-(5-amino-3-trifluoromethyl-1,2,4-triazolyl)-4-fluoro-2-methylphenyl]2,2,2-trifluoroethyl sulfoxide], the Miticidal value in test [1] and in test [4] was 100 in each case. In test [2], the “Nemastatic degree (%)” value worked out at 100%. For the same compound, the “Insecticidal degree (%)” value in test [3] stood at 100%.

Turning to `Cc1cc(F)c(-n2nc(C(F)(F)F)nc2NC(=O)C(F)(F)F)cc1[S+]([O-])CC(F)(F)F` (stereo not shown) [Compound 6, [5-(5-trifluoroacetylamino-3-trifluoromethyl-1,2,4-triazolyl)-4-fluoro-2-methylphenyl]2,2,2-trifluoroethyl sulfoxide], the Miticidal value in test [1] and in test [4] was 100 in each case. Further, the “Nemastatic degree (%)” value in test [2] was 100%. The “Insecticidal degree (%)” value in test [3] is reported as 100%.

Turning to `Cc1cc(F)c(-n2nc([S+]([O-])C(F)F)nc2N)cc1[S+]([O-])CC(F)(F)F` (stereo not shown) [Compound 30], the Miticidal value in test [1] and in test [4] was 100 each time. In test [2], the “Nemastatic degree (%)” value was determined as 95%.

As to `Cc1cc(F)c(-n2nc(C#N)nc2N)cc1SCC(F)(F)F` [Compound 35], the Miticidal value in test [1] is given as 100; in test [4], 93. For the same compound, the “Nemastatic degree (%)” value in test [2] is 100%.

As to `Cc1cc(F)c(-n2nc(C#N)nc2N)cc1[S+]([O-])CC(F)(F)F` (stereo not shown) [Compound 36], the Miticidal value in test [1] and in test [4] was 100 each time. For the same compound, the “Nemastatic degree (%)” value in test [2] is recorded as 100%.

Take `CNc1nc(C(F)(F)F)nn1-c1ccc(C)c([S+]([O-])CC(F)(F)F)c1` (stereo not shown) [Compound 38]: the Miticidal value in test [1] and in test [4] was 100 in each case. Besides, the “Nemastatic degree (%)” value in test [2] is 100%. The “Insecticidal degree (%)” value in test [3] is 100%.

For the compound `Cc1cc(F)c(-n2nc(C(F)(F)F)nc2N(C)C)cc1SCC(F)(F)F` [Compound 43], the Miticidal value in test [1] and in test [4] was 100 throughout. The “Nemastatic degree (%)” value in test [2] is 93%. For the same compound, the “Insecticidal degree (%)” value in test [3] came to 100%.

As to `CCc1nc(N)n(-c2cc([S+]([O-])CC(F)(F)F)c(C)cc2F)n1` (stereo not shown) [Compound 50], the Miticidal value in test [1] and in test [4] was 100 throughout. In addition, the “Nemastatic degree (%)” value in test [2] came out at 98%. The “Insecticidal degree (%)” value in test [3] is on record as 99%.

As for `C#CCNc1nc(C(F)(F)F)nn1-c1cc([S+]([O-])CC(F)(F)F)c(C)cc1F` (stereo not shown) [Compound 66], the Miticidal value in test [1] and in test [4] was 100 each time. The “Nemastatic degree (%)” value in test [2] is 94%. The “Insecticidal degree (%)” value in test [3] is given as 100%.

For the compound `CNc1nc(SC(F)(F)C(F)(F)F)nn1-c1cc([S+]([O-])CC(F)(F)F)c(C)cc1F` (stereo not shown) [Compound 102], the Miticidal value in test [1] and in test [4] was 100 throughout. Also, the “Nemastatic degree (%)” value in test [2] is listed as 98%. Besides, the “Insecticidal degree (%)” value in test [3] came out at 100%.

Turning to `CNc1nc(C(C)(C)C)nn1-c1cc(SCC(F)(F)F)c(C)cc1F` [Compound 114], the Miticidal value in test [1] and in test [4] was 100 each time. Also, the “Nemastatic degree (%)” value in test [2] is listed as 100%. The “Insecticidal degree (%)” value in test [3] was determined as 100%.

Turning to `CNc1nc(C(C)(C)C)nn1-c1cc([S+]([O-])CC(F)(F)F)c(C)cc1F` (stereo not shown) [Compound 115], the Miticidal value in test [1] and in test [4] was 100 throughout. The “Nemastatic degree (%)” value in test [2] amounted to 92%. Also, in test [3], the “Insecticidal degree (%)” value was determined as 100%.

For the compound `Nc1nc(C(F)(F)F)nn1-c1ccc(C(F)F)c([S+]([O-])CC(F)(F)F)c1` (stereo not shown) [Compound 123], the Miticidal value in test [1] and in test [4] was 100 throughout. In addition, the “Nemastatic degree (%)” value in test [2] turned out to be 98%.

For the compound `Cc1ccc(-n2nc(C(F)(F)F)nc2N)cc1[S+]([O-])CC(F)(F)F` (stereo not shown) [Compound 125], the Miticidal value in test [1] was 100; in test [4] it was 99. Besides, the “Nemastatic degree (%)” value in test [2] is listed as 91%. Also, the “Insecticidal degree (%)” value in test [3] is on record as 100%.

On to `Nc1nc(C(F)(F)F)nn1-c1ccc(Cl)c([S+]([O-])CC(F)(F)F)c1` (stereo not shown) [Compound 127], for which the Miticidal value in test [1] and in test [4] was 100 throughout. Besides, the “Nemastatic degree (%)” value in test [2] is 94%. In addition, the “Insecticidal degree (%)” value in test [3] came to 100%.

For the compound `Cc1cc(F)c(-n2nc(SCC(F)(F)F)nc2N)cc1[S+]([O-])CC(F)(F)F` (stereo not shown) [Compound 131], the Miticidal value in test [1] and in test [4] was 100 each time. Besides, in test [2], the “Nemastatic degree (%)” value was 93%. Besides, the “Insecticidal degree (%)” value in test [3] came to 90%.

Take `Cc1cc(F)c(-n2nc([S+]([O-])CC(F)(F)F)nc2N)cc1[S+]([O-])CC(F)(F)F` (stereo not shown) [Compound 133]: the Miticidal value in test [1] and in test [4] was 100 each time. Also, in test [2], the “Nemastatic degree (%)” value is 98%. Besides, the “Insecticidal degree (%)” value in test [3] is reported as 100%.

Regarding `Cc1cc(F)c(-n2nc(C(C)(C)C)nc2N)cc1SCC(F)(F)F` [Compound 144], the Miticidal value in test [1] and in test [4] was 100 throughout. Also, the “Nemastatic degree (%)” value in test [2] came out at 97%. Further, the “Insecticidal degree (%)” value in test [3] turned out to be 90%.

With `CNc1nc(SCC(F)(F)F)nn1-c1cc([S+]([O-])CC(F)(F)F)c(C)cc1F` (stereo not shown) [Compound 161], the Miticidal value in test [1] and in test [4] was 100 throughout. Moreover, the “Nemastatic degree (%)” value in test [2] stood at 98%. For the same compound, the “Insecticidal degree (%)” value in test [3] came to 100%.

For the compound `Cc1cc(F)c(-n2nc(C(F)(F)F)nc2NN)cc1SCC(F)(F)F` [Compound 162], the Miticidal value is on record as 100 in test [1] and 95 in test [4]. The “Nemastatic degree (%)” value in test [2] is given as 100%. In test [3], the “Insecticidal degree (%)” value is 100%.

For the compound `Cc1cc(F)c(-n2nc(C(F)(F)F)nc2N(C)N)cc1[S+]([O-])CC(F)(F)F` (stereo not shown) [Compound 171], the Miticidal value in test [1] and in test [4] was 100 in each case. Further, the “Nemastatic degree (%)” value in test [2] is on record as 100%. Moreover, the “Insecticidal degree (%)” value in test [3] was 100%.

Values taken from patent US7872036B2, “3-triazolylphenyl sulfide derivative and insecticide, miticide and nematicide containing it as an active ingredient” (Kumiai Chemical Industry Co., Ltd., priority 2004, dated 2011).
